Measured values taken from patent US20070043102A1, “Oral suspension of tegaserod” (priority 2003, published 2007).

Assay: Stability study of the oral suspensions (HPLC assay and degradation products)
Assay type: physicochemical
Protocol: The stability study is performed for maximum 3 days at the storage conditions of room temperature (about 20-25° C.) and/or 5° C. ( fridge). The start point (TO) is performed about 1 minute after preparation. Furthermore, a “24 hours” and “3 days” time point at room temperature and 5° C. is performed.
Analytical methods: For each time-point tested, the degradation products of Tegaserod by HPLC are evaluated. Analytical methods are based on Test Methods described below.
Procedure for assay determination: For each time-point, one tablet is crushed according to the above procedure. The crushed tablet is transferred quantitatively into a 100 ml amber glass volumetric flask. 50 ml of the beverage is carefully added and the suspension is shaken vigorously by hand a few time and allowed to stand for the storage time tested. The suspension is re-homogenized, by shaking by hand. For extraction, the flask is filled to the mark with methanol (about 50 ml) then shaken for 30 minutes under magnetic stirring, sonicated for 10 minutes and shaken for 30 minutes under magnetic stirring. An aliquot of the methanol solution is centrifuged. The clear supernatant of the above solution is used as the test solution and is analyzed by HPLC (Isocratic HPLC on reversed phase RP-8 with UV detection). The same procedure is carried out once for each beverage but without tablet powder and the resulting chromatograms are compared for new appearance of any peak.
Procedure for determination of degradation products: In order to enable to reach a sufficiently low limit to quantify the degradation products, the number of tablets to be crushed is increased. For each time-point, 6 tablets for 2 mg dosage strength (or 5 tablets for 6 mg dosage strength) are crushed according to the above procedure. The crushed tablet is transferred quantitatively into a 20 ml for 2 mg dosage strength (or 50 ml amber glass volumetric flask for 6 mg dosage strength). 10 ml for 2 mg dosage strength (or 25 ml for 6 mg dosage strength) of the beverage are added carefully. The suspension is shaken vigorously by hand a few time and is allowed to stand for the storage time tested. The suspension is re-homogenized by shaking by hand. For extraction, the flask is filled to the mark with acetonitrile and is shaken for 30 minutes under magnetic stirring, sonicated for 10 minutes and shaken for 30 minutes under magnetic stirring. An aliquot of the homogenized solution is centrifuged.
The clear supernatant of the above solution is used as the test solution in order to quantify using a gradient HPLC on reversed phase RP-8 with UV detection. The same procedure is carried out once for each beverage but without crushed tablet and the resulting chromatograms are compared and analyzed according to the scheme below.
Acceptance criteria: Tegaserod is assumed stable in the tested media if the following acceptance criteria are met for the time-points studied.

time stable (crushed tablet in apple juice, fridge (5° C.), 2 mg dosage strength): at least 24 hours
time stable (crushed tablet in apple juice, fridge (5° C.), 6 mg dosage strength): up to 3 days
time stable (crushed tablet in apple juice, room temperature): at least 1 hour
time stable (crushed tablet in orange juice, fridge (5° C.), 2 mg dosage strength): at least 24 hours
time stable (crushed tablet in orange juice, fridge (5° C.), 6 mg dosage strength): up to 3 days
time stable (crushed tablet in orange juice, room temperature): at least 1 hour
time stable (crushed tablet in water, fridge (5° C.), 2 mg dosage strength): at least 24 hours
time stable (crushed tablet in water, fridge (5° C.), 6 mg dosage strength): up to 3 days
time stable (crushed tablet in water, room temperature): at least 1 hour
SMILES: CCCCCNC(=N)NN=Cc1c[nH]c2ccc(OC)cc12 [Tegaserod, 3-(5-methoxy-1H-indol-3-yl-methylene)-N-pentylcarbazimidamide]
